Experiment [1] has as its target T1, Sphingosine kinase 1 (Homo sapiens, UniProt Q9NYA1). Briefly: Inhibition of human recombinant SphK1 preincubated for 5 mins followed by substrate addition measured for 60 mins by plate reader assay.
Experiment [2] concerns the target T2, Sphingosine kinase 2 (Homo sapiens) (UniProt Q9NRA0).
T2 sequence (whole entry): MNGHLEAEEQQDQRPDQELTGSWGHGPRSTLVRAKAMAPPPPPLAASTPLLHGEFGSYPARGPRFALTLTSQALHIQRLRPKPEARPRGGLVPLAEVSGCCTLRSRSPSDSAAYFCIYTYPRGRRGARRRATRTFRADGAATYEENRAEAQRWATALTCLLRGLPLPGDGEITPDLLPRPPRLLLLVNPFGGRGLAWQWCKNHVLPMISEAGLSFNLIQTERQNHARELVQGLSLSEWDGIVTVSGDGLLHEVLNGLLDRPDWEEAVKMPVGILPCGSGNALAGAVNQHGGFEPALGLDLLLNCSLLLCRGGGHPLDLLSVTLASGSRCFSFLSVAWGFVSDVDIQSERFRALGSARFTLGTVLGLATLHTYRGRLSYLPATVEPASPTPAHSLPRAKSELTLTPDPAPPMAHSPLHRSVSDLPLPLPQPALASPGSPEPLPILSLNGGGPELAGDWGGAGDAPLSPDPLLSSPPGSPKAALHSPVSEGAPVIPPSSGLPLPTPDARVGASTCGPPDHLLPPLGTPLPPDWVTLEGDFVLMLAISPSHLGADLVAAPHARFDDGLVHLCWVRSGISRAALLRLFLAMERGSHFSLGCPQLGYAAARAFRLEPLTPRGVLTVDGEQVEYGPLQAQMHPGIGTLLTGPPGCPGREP
The experiment in a line: Inhibition of human recombinant SphK2 at 500 uM preincubated for 5 mins followed by substrate addition measured for 60 mins by plate reader assay.

Experiment [3] addresses T1, Sphingosine kinase 1. Briefly: Inhibition of human recombinant SphK1 at 50 uM preincubated for 5 mins followed by substrate addition measured for 60 mins by plate reader assay.
The next experiment has as its target T3, Sphingosine kinase 2 (Homo sapiens, UniProt Q9NRA0).
T3 sequence (Q9NRA0 whole entry): T2 sequence (whole entry)
The experiment in a line: Inhibition of human recombinant SphK2 preincubated for 5 mins followed by substrate addition measured for 60 mins by plate reader assay.

For experiment [4], the target named is T2, Sphingosine kinase 2 (Homo sapiens). The experiment in a line: Inhibition of human recombinant SphK2 at 50 uM preincubated for 5 mins followed by substrate addition measured for 60 mins by plate reader assay.
For the next experiment, the system named is U-937. The experiment in a line: Antiproliferative activity against human U937 cells after 72 hrs by MTT assay. The class given is functional, cell-based. On the technique in general: Tetrazolium assays rely on reduction of a dye to a coloured formazan, in cell work by metabolically active cells.

SMILES strings stand for the structures. Activity calls are given as the source filed them. No cut-off for these calls is given here.

T1 sequence (Q9NYA1 whole entry): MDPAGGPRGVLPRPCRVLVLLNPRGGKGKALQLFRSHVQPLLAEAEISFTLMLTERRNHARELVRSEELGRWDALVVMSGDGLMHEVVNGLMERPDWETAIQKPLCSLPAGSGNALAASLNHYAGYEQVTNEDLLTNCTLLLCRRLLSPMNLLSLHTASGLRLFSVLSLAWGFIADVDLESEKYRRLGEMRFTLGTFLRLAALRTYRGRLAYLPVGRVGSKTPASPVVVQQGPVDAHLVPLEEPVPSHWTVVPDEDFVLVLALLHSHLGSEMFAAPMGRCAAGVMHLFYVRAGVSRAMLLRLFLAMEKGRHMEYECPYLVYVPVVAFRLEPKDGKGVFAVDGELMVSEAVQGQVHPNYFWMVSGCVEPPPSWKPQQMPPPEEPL

Broadly, the IC50 is the point on the concentration scale where inhibition reaches its midpoint. Broadly, the inhibition is the share of the control response that was lost under treatment. As for `CCCCCCCCCCCCCC(=O)Nc1nc2ccccc2[nH]1`, the results for the IC50 on Sphingosine kinase 1 [1] and at Sphingosine kinase 2 were 40.5 µM and 31.3 µM, respectively. The inhibition entry in experiment [2] and in experiment [4] was “Active” each time. The inhibition on Sphingosine kinase 1 [3] was above 60%.
Turning to `CCCOc1ccc(N2C(=O)CC(Nc3ccc(CCO)cc3)C2=O)cc1` (configuration not stated), the IC50 on Sphingosine kinase 1 [1] was 61.6 µM; on Sphingosine kinase 2, 62.6 µM. Also, the inhibition entry in experiment [2] and in experiment [4] was “Active” each time. In addition, the inhibition on Sphingosine kinase 1 [3] is above 60%.
Consider `CCCCCCCCCCCCC/C=C/[C@@H](O)[C@H](CO)N(C)C` [DIMETHYLSPINGOSINE], for which, on Sphingosine kinase 2, the IC50 worked out at 16.3 µM.
On to `O=C(N/N=C/c1cccc(OCc2ccccc2)c1)c1cc(O)c(O)c(O)c1`, for which the IC50 was determined as 23.1 µM on Sphingosine kinase 1 [1] and 17.1 µM on Sphingosine kinase 2. Besides, the inhibition result in experiment [2] and in experiment [4] was “Active” each time. The inhibition on Sphingosine kinase 1 [3] is above 60%. Besides, in the experiment on U-937, the Activity entry is “Dose-dependent effect”.
